Results from US7084155B2, “Chemokine receptor binding heterocyclic compounds” (AnorMED, priority 2000, dated 2006).

Assays:
Format in all cases: cell-based
HIV-1 BaL = assay: Inhibition of HIV-1 BaL (CCR5 using) replication in PHA-stimulated PBMC's, viral p24 antigen expression; settings: Human immunodeficiency virus 1, BAL
[1] = test system: SDF-1 induced Ca flux in SUP-T1 cells; assay: Inhibition of chemokine (SDF-1) induced Ca flux measured on a FLIPR; settings: Homo sapiens
Experimental: Inhibition of Chemokine Induced Ca Flux Measured on a FLIPR (Molecular Devices) Loading dye: Fluo-3, AM (Molecular Probes F-1241) is dissolved in anhydrous DMSO and stored frozen in aliquots. To increase the solubility of the dye in the loading medium, 10% (w/v) pluronic acid (Molecular Probes F-127) is added to the Fluo-3 stock solution immediately before use. HBSS+20 mM Hepes buffer+0.2% BSA, pH 7.4. HBSS 10× [(w/o phenol red and sodium bicarbonate (Gibco 14 065–049)]; Hepes buffer 1M (Gibco 15 630–056), BSA (Sigma A3675). The flux buffer is vacuum-filtered and stored refrigerated for a maximum of 5 days. Before use in the experiment, the buffer is warmed at 37° C. in a waterbath. The test compounds were diluted in flux buffer to the desired concentration and added to 4 wells of a black microplate (4 parallel measurements per compound). The following control wells were used: 100% response control (no inhibition), flux buffer was added; 100% inhibition control: chemokine was added at 5-times the concentration required to induce a Ca flux. The chemokines are diluted in flux buffer to concentrations that are 4-fold higher than the desired concentrations required for stimulation of the cells (i.e. 2.5 nM for SDF-1[…] and 0.6 nM for RANTES). The chemokines were added to untreated 96-well Sero well compound plates (International Medical, Sterilin code 611F96). In the negative control well's (baseline monitoring), flux buffer is added instead of chemokine. As a positive control to check for dye loading efficiency, 20 μM digitonin (final concentration) was also included. The agonist plate was incubated in the FLIPR (37° C.) for 15–30 min. Cell Loading Protocol for Measuring Inhibition of SDF-1[…] Induced Ca Flux in SUP-T1 Cells. SUP-T1 cells were centrifuged at room temperature (RT) and re-suspended in loading medium (RPMI-1640 containing 2% FBS and 4 μM Fluo-3, AM). The cells were incubate at room temperature for 45 min. then washed twice in flux buffer then incubated in flux buffer at room temperature for 10 min. The cells were centrifuged and re-suspended in flux buffer at a density of 3×10^6 cells per mL. A 100 uL aliquot of the cell suspension (3×10^5 cells) was added to each well of a black microplate (Costar 3603), which already contains 50 uL of a solution of the test compound (at concentrations that are 3-fold higher than the desired final compound concentrations). The microplate is then gently centrifuged at room temperature. Homogeneous spreading of the cells on the bottom of the microplate wells was then confirmed with a microscope and the microplate was incubated in the FLIPR (37° C.) for 10 min. prior to testing. Fluorescence Measurements as a Function of Time on the FLIPR The FLIPR settings (camera exposure time and laser power) are adjusted to obtain initial fluorescence values between 8,000 and 10,000 units. After monitoring a 20 second-baseline, the agonist (chemokine) (50 uL) is added by automatic pipettor with black pipette tips. Fluorescence is measured simultaneously in all wells of the microplate every 2 seconds (first 2 min) and thereafter every 6 seconds (additional 2 min). The average ca-flux measured in each set of 4 identical wells (one test compound) was calculated by the FLIPR software.

HIV-1 NL4.3 or IIIB = assay: Inhibition of HIV-1 (NL4.3 or IIIB, CXCR4 using) replication in MT-4 cells, MTT viability; settings: Human immunodeficiency virus 1, IIIB, MT4, concentration protecting 50% of virus-infected cells against viral cytopathicity
Experimental: Assay for Inhibition of HIV-1 (NL4.3) Replication in MT-4 Cells Inhibition of HIV-1 NL4.3 (or IIIB, CXCR4 using) replication assays were performed as previously described (Bridger et al. J. Med. Chem. 1999, 42, 3971-3981; De […] et al. Proc. Natl. Acad. Sci, 1992, 89, 5286-5290; De […] et al. Antimicrob. Agents Chemother. 1994, 38, 668-674; Bridger et al. J. Med. Chem. 1995, 38, 366-378; Schols et al. J. Exp. Med., 1997, 186, 1383-1388). Anti-HIV activity and cytotoxicity measurements were carried out in parallel. They were based on the viability of MT-4 cells that had been infected with HIV in the presence of various concentrations of the test compounds. After the MT-4 cells were allowed to proliferate for 5 days, the number of viable cells was quantified by a tetrazolium-based colorimetric 3-(4,5-dimethylthiazol-2-yl)-2,5-diphenyltetrazolium bromide (MTT) procedure in 96-well microtrays. In all of these assays, viral input (viral multiplicity of infection, MOI) was 0.01, or 100 times the 50% cell culture infective dose (CCID50). The EC50 was defined as the concentration required to protect 50% of the virus-infected cells against viral cytopathicity.

| SMILES | EC50 (HIV-1 BaL) [µg/mL] | inhibition at 20 µg/mL [1] [%] | EC50 (HIV-1 NL4.3 or IIIB) [µg/mL] |
| --- | --- | --- | --- |
| FC(F)(F)c1ccc2nc(CN(Cc3ccc(CNCc4ccccn4)cc3)C3CCCc4cccnc43)[nH]c2c1 (stereo not drawn) [Example 1, N-(2-pyridinylmethyl)-N′-(5-trifluoromethyl-1-H-benzimidazol-2-ylmethyl)-N′-(5,6,7,8-tetrahydro-8-quinolinyl)-1,4-benzenedimethanamine] | < 20 | > 20 | < 20 |
| Cc1cc2nc(CN(Cc3ccc(CNCc4ccccn4)cc3)C3CCCc4cccnc43)[nH]c2cc1C (stereo not drawn) [Example 2, N-(2-pyridinylmethyl)-N′-(5,6-dimethyl-1-H-benzimidazol-2-ylmethyl)-N′-(5,6,7,8-tetrahydro-8-quinolinyl)-1,4-benzenedimethanamine] | < 20 | > 20 | < 20 |
| COc1cccc2[nH]c(CN(Cc3ccc(CNCc4ccccn4)cc3)C3CCCc4cccnc43)nc12 (stereo not drawn) [Example 13, N-(2-pyridinylmethyl)-N′-[4-methoxy-1H-benzimidazol-2-ylmethyl]-N′-(5,6,7,8-tetrahydro-8-quinolinyl)-1,4-benzenedimethanamine] | < 20 | > 20 | < 20 |
| c1ccc(-c2cccc3nc(CN(Cc4ccc(CNCc5ccccn5)cc4)C4CCCc5cccnc54)[nH]c23)cc1 (stereo not drawn) [Example 14, N-(2-pyridinylmethyl)-N′-[4-phenyl-1H-benzimidazol-2-ylmethyl]-N′-(5,6,7,8-tetrahydro-8-quinolinyl)-1,4-benzenedimethanamine] | < 20 | > 20 | < 20 |
| c1ccc(-c2cnc(CN(Cc3ccc(CNCc4ccccn4)cc3)C3CCCc4cccnc43)[nH]2)cc1 (stereo not drawn) [Example 25, N-(2-pyridinylmethyl)-N′-(4-Phenyl-1H-imidazol-2-ylmethyl)-N′-(5,6,7,8-tetrahydro-8-quinolinyl)-1,4-benzenedimethanamine] | < 20 | > 20 | < 20 |
| O=[N+]([O-])c1ccc(-c2cnc(CN(Cc3ccc(CNCc4ccccn4)cc3)C3CCCc4cccnc43)[nH]2)cc1 (stereo not drawn) [Example 27, N-(2-pyridinylmethyl)-N′-[4-(4-nitrophenyl)-1H-imidazol-2-ylmethyl]-N′-(5,6,7,8-tetrahydro-8-quinolinyl)-1,4-benzenedimethanamine] | < 20 | > 20 | < 20 |
| Cc1nc(CN(Cc2ccc(CNCc3ccccn3)cc2)C2CCCc3cccnc32)[nH]c1-c1ccccc1 (stereo not drawn) [Example 28, N-(2-Pyridinylmethyl)-N′-(4-methyl-5-phenyl-1H-imidazol-2-ylmethyl)-N′-(5,6,7,8-tetrahydro-8-quinolinyl)-1,4-benzenedimethanamine] | < 20 | > 20 | < 20 |
| CC(C)(C)c1cnc(CN(Cc2ccc(CNCc3ccccn3)cc2)C2CCCc3cccnc32)[nH]1 (stereo not drawn) [Example 29, N-(2-Pyridinylmethyl)-N′-(5-tert-butyl-1H-imidazol-2-ylmethyl)-N′-(5,6,7,8-tetrahydro-8-quinolinyl)-1,4-benzenedimethanamine] | < 20 | > 20 | < 20 |
| COc1cccc(-c2cnc(CN(Cc3ccc(CNCc4ccccn4)cc3)C3CCCc4cccnc43)[nH]2)c1 (stereo not drawn) [Example 30, N-(2-Pyridinylmethyl)-N′-[5-(3-methoxyphenyl)-1H-imidazol-2-ylmethyl]-N′-(5,6,7,8-tetrahydro-8-quinolinyl)-1,4-benzenedimethanamine] | < 20 | > 20 | < 20 |
| FC(F)(F)c1c[nH]c(CN(Cc2ccc(CNCc3ccccn3)cc2)C2CCCc3cccnc32)n1 (stereo not drawn) [Example 35, N-(2-pyridinylmethyl)-N′-(4-trifluormethyl-1H-imidazol-2-ylmethyl)-N′-(5,6,7,8-tetrahydro-8-quinolinyl)-1,4-benzenedimethanamine] | < 20 | > 20 | < 20 |
| CCCCc1ccc(CNCc2ccc(CN(Cc3nc4ccccc4[nH]3)C3CCCc4cccnc43)cc2)nc1 (stereo not drawn) [Example 54, N-(5-butyl-2-pyridinylmethyl)-N′-(1H-benzimidazol-2-ylmethyl)-N′-(5,6,7,8-tetrahydro-8-quinolinyl)-1,4-benzenedimethanamine] | < 20 | > 20 | < 20 |
| Oc1cccnc1CNCc1ccc(CN(Cc2nc3ccccc3[nH]2)C2CCCc3cccnc32)cc1 (stereo not drawn) [Example 55, N-(3-hydroxy-2-pyridinylmethyl)-N′-(1H-benzimidazol-2-ylmethyl)-N′-(5,6,7,8-tetrahydro-8-quinolinyl)-1,4-benzenedimethanamine] | < 20 | > 20 | < 20 |
| Cc1cc(C)nc(CNCc2ccc(CN(Cc3nc4ccccc4[nH]3)C3CCCc4cccnc43)cc2)c1 (stereo not drawn) [Example 61, N-(4,6-dimethyl-2-pyridinylmethyl)-N′-(1H-benzimidazol-2-ylmethyl)-N′-(5,6,7,8-tetrahydro-8-quinolinyl)-1,4-benzenedimethanamine] | < 20 | > 20 | < 20 |
| Cc1cc(CNCc2ccc(CN(Cc3nc4ccccc4[nH]3)C3CCCc4cccnc43)cc2)cc(C)n1 (stereo not drawn) [Example 62, N-(2,6-dimethyl-4-pyridinylmethyl)-N′-(1H-benzimidazol-2-ylmethyl)-N′-(5,6,7,8-tetrahydro-8-quinolinyl)-1,4-benzenedimethanamine] | < 20 | > 20 | < 20 |
| c1cnc2c(c1)CCCC2N(Cc1ccc(CNCc2cc3ccccc3cn2)cc1)Cc1nc2ccccc2[nH]1 (stereo not drawn) [Example 63, N-(3-isoquinolinylmethyl)-N′-(1H-benzimidazol-2-ylmethyl)-N′-(5,6,7,8-tetrahydro-8-quinolinyl)-1,4-benzenedimethanamine] | < 20 | > 20 | < 20 |
| COc1cc(CNCc2ccc(CN(Cc3nc4ccccc4[nH]3)C3CCCc4cccnc43)cc2)nc2ccccc12 (stereo not drawn) [Example 64, N-(4-methoxy-2-quinolinylmethyl)-N′-(1H-benzimidazol-2-ylmethyl)-N′-(5,6,7,8-tetrahydro-8-quinolinyl)-1,4-benzenedimethanamine] | < 20 | > 20 | < 20 |
| CC(NCc1ccc(CN(Cc2nc3ccccc3[nH]2)C2CCCc3cccnc32)cc1)c1ccccn1 (stereo not drawn) [Example 66, N-[1-(2-pyridinyl)eth-1-yl]-N′-(1H-benzimidazol-2-ylmethyl)-N′-(5,6,7,8-tetrahydro-8-quinolinyl)-1,4-benzenedimethanamine] | < 20 | > 20 | < 20 |
| c1ccc(CNCc2ccc(CN(CCNCc3nc4ccccc4[nH]3)C3CCCc4cccnc43)cc2)nc1 (stereo not drawn) [Example 67, N-(2-pyridinylmethyl)-N′-[2-[(1H-benzimidazol-2-ylmethyl)amino]ethyl]-N′-(5,6,7,8-tetrahydro-8-quinolinyl)-1,4-benzenedimethanamine] | < 20 | > 20 | < 20 |
